# Tests used:
# Assay in all cases: yeast two-hybrid (GAL4), COR-dependent growth
# Assay type in all cases: cell-based
# [1] = target: T1, AtJAZ9 and FaCOI1 (Fragaria x ananassa; Arabidopsis thaliana, UniProt A0A290U3W5+Q8W4J8); conditions: 50 µM COR; 28 °C, 5 days; JAZ co-receptor
# T1 construct: gene COI1; mixed-species complex; Saccharomyces cerevisiae AH109
# [2] = target: T2, FaCOI1–FaJAZ1 (Fragaria x ananassa, UniProt A0A290U0M9+A0A290U3W5); conditions: 50 µM COR; 28 °C, 5 days; growth on SD-Leu-Trp-His and SD-Leu-Trp-His-Ade; JAZ co-receptor
# T2 construct: gene COI1; Saccharomyces cerevisiae AH109; native degron IPMQRK
# T2 sequence (A0A290U0M9 entry or part of it): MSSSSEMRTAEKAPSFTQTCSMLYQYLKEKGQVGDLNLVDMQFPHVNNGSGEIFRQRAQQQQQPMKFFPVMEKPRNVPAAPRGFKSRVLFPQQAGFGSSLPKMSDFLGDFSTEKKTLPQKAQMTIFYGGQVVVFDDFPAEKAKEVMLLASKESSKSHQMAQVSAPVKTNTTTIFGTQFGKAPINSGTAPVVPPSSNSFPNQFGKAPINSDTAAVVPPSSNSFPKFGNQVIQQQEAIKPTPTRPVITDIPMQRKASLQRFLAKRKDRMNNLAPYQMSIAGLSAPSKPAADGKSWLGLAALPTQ
# T2 sequence (A0A290U3W5 entry or part of it): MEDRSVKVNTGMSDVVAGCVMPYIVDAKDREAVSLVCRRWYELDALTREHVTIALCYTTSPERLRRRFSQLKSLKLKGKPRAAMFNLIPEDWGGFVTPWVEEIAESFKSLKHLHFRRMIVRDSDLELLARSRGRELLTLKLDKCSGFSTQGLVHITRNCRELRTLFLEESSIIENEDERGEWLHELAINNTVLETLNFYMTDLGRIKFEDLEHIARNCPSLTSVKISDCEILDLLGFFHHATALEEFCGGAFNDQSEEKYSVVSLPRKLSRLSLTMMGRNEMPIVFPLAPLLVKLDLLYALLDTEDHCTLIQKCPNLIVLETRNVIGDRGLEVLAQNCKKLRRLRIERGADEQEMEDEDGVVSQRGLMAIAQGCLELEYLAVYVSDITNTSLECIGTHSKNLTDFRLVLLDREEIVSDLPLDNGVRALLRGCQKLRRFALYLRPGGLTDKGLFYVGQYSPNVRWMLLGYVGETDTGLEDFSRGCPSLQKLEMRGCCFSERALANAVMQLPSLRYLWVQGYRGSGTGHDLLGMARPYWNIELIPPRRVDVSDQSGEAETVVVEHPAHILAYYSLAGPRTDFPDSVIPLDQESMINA
# [3] = target: T3, AtCOI1–FaJAZ10 (Arabidopsis thaliana; Fragaria x ananassa, UniProt A0A290U478+O04197); conditions: 50 µM COR; 28 °C, 5 days; JAZ co-receptor
# T3 construct: gene COI1; mixed-species complex; Saccharomyces cerevisiae AH109
# T3 sequence (O04197 whole entry): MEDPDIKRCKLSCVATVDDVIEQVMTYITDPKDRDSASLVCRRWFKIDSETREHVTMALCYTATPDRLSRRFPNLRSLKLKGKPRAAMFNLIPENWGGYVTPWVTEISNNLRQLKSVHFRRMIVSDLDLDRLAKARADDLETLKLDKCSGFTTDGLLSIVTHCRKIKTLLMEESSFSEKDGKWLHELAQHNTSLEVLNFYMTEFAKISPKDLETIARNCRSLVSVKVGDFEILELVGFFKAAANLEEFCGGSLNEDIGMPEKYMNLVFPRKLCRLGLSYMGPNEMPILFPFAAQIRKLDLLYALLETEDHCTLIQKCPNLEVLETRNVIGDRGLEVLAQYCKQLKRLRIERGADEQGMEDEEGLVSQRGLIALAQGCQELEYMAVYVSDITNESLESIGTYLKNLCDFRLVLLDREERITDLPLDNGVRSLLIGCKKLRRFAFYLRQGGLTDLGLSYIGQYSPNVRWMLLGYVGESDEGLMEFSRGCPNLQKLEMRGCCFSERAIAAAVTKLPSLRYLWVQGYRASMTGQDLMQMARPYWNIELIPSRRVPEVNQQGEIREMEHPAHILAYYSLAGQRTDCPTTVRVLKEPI
# T3 sequence (A0A290U478 entry or part of it): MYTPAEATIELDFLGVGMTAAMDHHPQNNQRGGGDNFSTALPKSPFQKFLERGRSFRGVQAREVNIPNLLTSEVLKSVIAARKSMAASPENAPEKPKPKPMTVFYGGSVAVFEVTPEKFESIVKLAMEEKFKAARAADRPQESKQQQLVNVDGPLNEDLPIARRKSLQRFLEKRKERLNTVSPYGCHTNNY
# [4] = target: T4, AtCOI1 with AtJAZ1 (Arabidopsis thaliana, UniProt O04197+Q9LMA8); conditions: 50 µM COR; 28 °C, 5 days; JAZ co-receptor
# T4 construct: gene COI1; Saccharomyces cerevisiae AH109; degron LPIARR
# T4 sequence (Q9LMA8 whole entry): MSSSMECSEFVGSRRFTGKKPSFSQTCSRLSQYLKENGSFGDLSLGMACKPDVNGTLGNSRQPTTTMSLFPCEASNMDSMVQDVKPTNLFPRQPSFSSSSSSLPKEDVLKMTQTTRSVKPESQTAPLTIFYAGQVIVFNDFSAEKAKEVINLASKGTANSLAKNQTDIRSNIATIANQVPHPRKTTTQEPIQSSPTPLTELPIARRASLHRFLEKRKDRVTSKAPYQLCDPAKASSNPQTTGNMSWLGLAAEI
# T4 sequence (O04197 whole entry): as the sequence (O04197 whole entry) above
# [5] = target: T5, AtCOI1–FaJAZ1 (Arabidopsis thaliana; Fragaria x ananassa, UniProt A0A290U0M9+O04197); conditions: 50 µM COR; 28 °C, 5 days; JAZ co-receptor
# T5 construct: gene COI1; mixed-species complex; Saccharomyces cerevisiae AH109
# T5 sequence (A0A290U0M9 entry or part of it): as the sequence (A0A290U0M9 entry or part of it) above
# T5 sequence (O04197 whole entry): as the sequence (O04197 whole entry) above
# [6] = target: T6, AtCOI1 with AtJAZ9 (Arabidopsis thaliana, UniProt O04197+Q8W4J8); conditions: 50 µM COR; 28 °C, 5 days; JAZ co-receptor
# T6 construct: gene COI1; Saccharomyces cerevisiae AH109; degron VPQARK
# T6 sequence (O04197 whole entry): as above
# T6 sequence (Q8W4J8 whole entry): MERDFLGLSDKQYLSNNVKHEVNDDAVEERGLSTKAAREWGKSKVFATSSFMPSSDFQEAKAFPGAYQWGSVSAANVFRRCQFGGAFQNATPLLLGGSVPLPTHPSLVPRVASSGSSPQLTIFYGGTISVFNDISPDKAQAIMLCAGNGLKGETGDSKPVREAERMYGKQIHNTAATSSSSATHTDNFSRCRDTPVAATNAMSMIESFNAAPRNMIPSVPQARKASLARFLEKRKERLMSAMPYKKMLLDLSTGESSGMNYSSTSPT
# [7] = target: T7, FaCOI1–FaJAZ10 (Fragaria x ananassa, UniProt A0A290U3W5+A0A290U478); conditions: 50 µM COR; 28 °C, 5 days; SD-Leu-Trp-His selection; JAZ co-receptor
# T7 construct: gene COI1; Saccharomyces cerevisiae AH109; degron LPIARR
# T7 sequence (A0A290U3W5 entry or part of it): as the sequence (A0A290U3W5 entry or part of it) above
# T7 sequence (A0A290U478 entry or part of it): as the sequence (A0A290U478 entry or part of it) above
# T1 sequence (Q8W4J8 whole entry): as the sequence (Q8W4J8 whole entry) above
# T1 sequence (A0A290U3W5 entry or part of it): as the sequence (A0A290U3W5 entry or part of it) above
structure (smiles),measurement,setting,value
CC[C@H]1C=C(C(=O)N[C@@]2(C(=O)O)C[C@@H]2CC)[C@H]2CCC(=O)[C@H]2C1 [coronatine],"yeast two-hybrid (GAL4), COR-dependent growth",[1],only a positive interaction between AtJAZ9 and FaCOI1 promoted by COR was observed
same,"yeast two-hybrid (GAL4), COR-dependent growth",[2],FaJAZ1 and FaJAZ10 interacted with FaCOI1 in a COR-dependent manner
same,"yeast two-hybrid (GAL4), COR-dependent growth",[3],both FaJAZ1 and FaJAZ10 interacted with AtCOI1 in restrictive media and supplemented with COR
same,"yeast two-hybrid (GAL4), COR-dependent growth",[4],AtJAZ1 and AtJAZ9 interacted with AtCOI1 which was observed by colony growth
same,"yeast two-hybrid (GAL4), COR-dependent growth",[5],both FaJAZ1 and FaJAZ10 interacted with AtCOI1 in restrictive media and supplemented with COR
same,"yeast two-hybrid (GAL4), COR-dependent growth",[6],AtJAZ1 and AtJAZ9 interacted with AtCOI1 which was observed by colony growth
same,"yeast two-hybrid (GAL4), COR-dependent growth",[7],FaJAZ1 and FaJAZ10 interacted with FaCOI1 in a COR-dependent manner
